# Data taken from article PMC7041945, “Misfolded proteins bind and activate death receptor 5 to trigger apoptosis during unresolved endoplasmic reticulum stress” (eLife, 2020).
# Key:
# [1] = system: CHOP, BiP, and DR5 mRNA in HCT116 cells; assay: qPCR of UPR target transcripts (CHOP, BiP, DR5); type: cell-based, Homo sapiens
# Experimental: Cells were grown in 6-well plates and harvested with 0.5 ml of TRIzol reagent (Life Technologies) per manufacturer’s protocol to extract RNA. For cDNA synthesis, 500 ng of total RNA was reverse transcribed with 2 μl of the SuperScript VILO master mix (Life Technologies # 11755050) in a total reaction volume of 10 μl following the manufacturer’s protocol for reaction temperature and duration. The reverse transcription product was diluted to 200 μl with 10 mM Tris-HCl pH 8.2 and used at 1:100 dilution for subsequent RT-PCR reactions.
# PCR samples were prepared as described by manufacturer’s protocols from iQ SYBR Green Supermix (BioRad #17088800).
# For each experiment, qRT-PCR reactions were set up in triplicate and run using a CFX96 Real Time System (Bio-Rad). Quantitation cycles were determined with CFX Manager 3.0 software (Bio-Rad) and then normalized to GAPDH as an internal control.
# [2] = system: GAPDH; assay: qPCR of GAPDH (reference transcript); type: cell-based; details: 24 hr, Rep 2
# [3] = 24 hr, Rep 2, relative to empty traffo, mean of 3 replicates
# [4] = 24 hr, Rep 2, relative to empty traffo, replicate 1
# [5] = 24 hr, Rep 2, relative to empty traffo, replicate 2
# [6] = 24 hr, Rep 2, relative to empty traffo, replicate 3
# [7] = HCT116, 100 nM for 24 hours, avg., norm to GAPDH
# [8] = HCT116, 100 nM for 24 hours, replicate 1
# [9] = HCT116, 100 nM for 24 hours, replicate 2
# [10] = HCT116, 100 nM for 24 hours, replicate 3
# [11] = HCT116, 100 nM for 24 hours, vs GAPDH, replicate 1
# [12] = HCT116, 100 nM for 24 hours, vs GAPDH, replicate 2
# [13] = HCT116, 100 nM for 24 hours, vs GAPDH, replicate 3
# [14] = HCT116, 100 nM Tg for 24 hours, mean of 3 replicates
# [15] = HCT116, 100 nM Tg for 24 hours, replicate 1
# [16] = HCT116, 100 nM Tg for 24 hours, replicate 2
# [17] = HCT116, 100 nM Tg for 24 hours, replicate 3
# [18] = qPCR Rep 2, WT MPZ GFP 1000 ng, or empty traffo + Tg, mean of 3
# [19] = qPCR Rep 2, WT MPZ GFP 1000 ng, or empty traffo + Tg, replicate 1
# [20] = qPCR Rep 2, WT MPZ GFP 1000 ng, or empty traffo + Tg, replicate 2
# [21] = qPCR Rep 2, WT MPZ GFP 1000 ng, or empty traffo + Tg, replicate 3
# [22] = qPCR Rep 2, WT MPZ GFP 1000 ng, or empty traffo + Tg, vs avg GAPDH, replicate 1
# [23] = qPCR Rep 2, WT MPZ GFP 1000 ng, or empty traffo + Tg, vs avg GAPDH, replicate 2
# [24] = qPCR Rep 2, WT MPZ GFP 1000 ng, or empty traffo + Tg, vs avg GAPDH, replicate 3
smiles,measurement,setting,value
"C/C=C(/C)C(=O)O[C@H]1C(C)=C2[C@H]([C@@H]1OC(=O)CCCCCCC)[C@@](C)(OC(C)=O)C[C@H](OC(=O)CCC)[C@@]1(O)[C@H]2OC(=O)[C@@]1(C)O [thapsigargin, reference compound]",avg. fold induction CHOP,[1]; [3],2.825
same,avg. fold induction DR5 total,[1]; [3],2.175
same,fold induction CHOP,[1]; [4],2.975
same,fold induction DR5 total,[1]; [4],2.222
same,fold induction CHOP,[1]; [5],2.927
same,fold induction DR5 total,[1]; [5],2.286
same,fold induction CHOP,[1]; [6],2.573
same,fold induction DR5 total,[1]; [6],2.0182
same,2^-(deltaCq) CHOP,"[1]; 24 hr, Rep 2, replicate 1",0.03423
same,2^-(deltaCq) DR5 total,"[1]; 24 hr, Rep 2, replicate 1",0.06479
same,Cq CHOP,"[1]; 24 hr, Rep 2, replicate 1",23.6206
same,Cq DR5 total,"[1]; 24 hr, Rep 2, replicate 1",22.7
same,"Cq(sample) - avg Cq(GAPDH), CHOP","[1]; 24 hr, Rep 2, replicate 1",4.869
same,"Cq(sample) - avg Cq(GAPDH), DR5 total","[1]; 24 hr, Rep 2, replicate 1",3.948
same,2^-(deltaCq) CHOP,"[1]; 24 hr, Rep 2, replicate 2",0.03367
same,2^-(deltaCq) DR5 total,"[1]; 24 hr, Rep 2, replicate 2",0.06665
same,Cq CHOP,"[1]; 24 hr, Rep 2, replicate 2",23.6444
same,Cq DR5 total,"[1]; 24 hr, Rep 2, replicate 2",22.6592
same,"Cq(sample) - avg Cq(GAPDH), CHOP","[1]; 24 hr, Rep 2, replicate 2",4.892
same,"Cq(sample) - avg Cq(GAPDH), DR5 total","[1]; 24 hr, Rep 2, replicate 2",3.9072
same,2^-(deltaCq) CHOP,"[1]; 24 hr, Rep 2, replicate 3",0.0296
same,2^-(deltaCq) DR5 total,"[1]; 24 hr, Rep 2, replicate 3",0.05885
same,Cq CHOP,"[1]; 24 hr, Rep 2, replicate 3",23.8304
same,Cq DR5 total,"[1]; 24 hr, Rep 2, replicate 3",22.839
same,"Cq(sample) - avg Cq(GAPDH), CHOP","[1]; 24 hr, Rep 2, replicate 3",5.078
same,"Cq(sample) - avg Cq(GAPDH), DR5 total","[1]; 24 hr, Rep 2, replicate 3",4.087
same,"avg. fold induction relative to empty traffo, BiP",[1]; [7],12.0843 fold
same,"avg. fold induction relative to empty traffo, CHOP",[1]; [7],7.5114 fold
same,"avg. fold induction relative to empty traffo, DR5 total",[1]; [7],5.041 fold
same,"fold induction relative to empty traffo, BiP",[1]; [8],11.9233 fold
same,"fold induction relative to empty traffo, CHOP",[1]; [8],7.102 fold
same,"fold induction relative to empty traffo, DR5 total",[1]; [8],5.4959 fold
same,"fold induction relative to empty traffo, BiP",[1]; [9],12.5755 fold
same,"fold induction relative to empty traffo, CHOP",[1]; [9],7.658 fold
same,"fold induction relative to empty traffo, DR5 total",[1]; [9],4.966 fold
same,"fold induction relative to empty traffo, BiP",[1]; [10],11.754 fold
same,"fold induction relative to empty traffo, CHOP",[1]; [10],7.775 fold
same,"fold induction relative to empty traffo, DR5 total",[1]; [10],4.661 fold
same,2^-(deltaCq) BiP,[1]; [11],1.038
same,2^-(deltaCq) CHOP,[1]; [11],0.07495
same,2^-(deltaCq) DR5 total,[1]; [11],0.08912
same,2^-(deltaCq) BiP,[1]; [12],1.095
same,2^-(deltaCq) CHOP,[1]; [12],0.08082
same,2^-(deltaCq) DR5 total,[1]; [12],0.08052
same,2^-(deltaCq) BiP,[1]; [13],1.023
same,2^-(deltaCq) CHOP,[1]; [13],0.08206
same,2^-(deltaCq) DR5 total,[1]; [13],0.07558
same,GAPDH avg. fold induction relative to empty traffo,[1]; [14],1.006
same,GFP avg. fold induction relative to empty traffo,[1]; [14],0.1103
same,ERO1alpha (386+387) avg. fold induction relative to empty traffo,"[1]; HCT116, 100 nM Tg for 24 hours, melt curves for these primers showed two peaks, mean of 3 replicates",0.8588
same,ERO1alpha (386+387) fold induction relative to empty traffo,"[1]; HCT116, 100 nM Tg for 24 hours, melt curves for these primers showed two peaks, replicate 1",0.8482
same,ERO1alpha (386+387) fold induction relative to empty traffo,"[1]; HCT116, 100 nM Tg for 24 hours, melt curves for these primers showed two peaks, replicate 2",0.8572
same,ERO1alpha (386+387) fold induction relative to empty traffo,"[1]; HCT116, 100 nM Tg for 24 hours, melt curves for these primers showed two peaks, replicate 3",0.8711
same,GADD34 (388+389) fold induction relative to empty traffo,[1]; [15],11.4671
same,GAPDH fold induction relative to empty traffo,[1]; [15],1.083
same,GFP fold induction relative to empty traffo,[1]; [15],0.1161
same,GADD34 (388+389) fold induction relative to empty traffo,[1]; [16],11.4954
same,GAPDH fold induction relative to empty traffo,[1]; [16],1.089
same,GFP fold induction relative to empty traffo,[1]; [16],0.1176
same,GADD34 (388+389) fold induction relative to empty traffo,[1]; [17],10.9924
same,GAPDH fold induction relative to empty traffo,[1]; [17],0.847
same,GFP fold induction relative to empty traffo,[1]; [17],0.09722
same,"avg. fold induction relative to WT MPZ DMSO, BiP",[1]; [18],6.727 fold
same,"avg. fold induction relative to WT MPZ DMSO, CHOP",[1]; [18],9.899 fold
same,"avg. fold induction relative to WT MPZ DMSO, DR5 total",[1]; [18],3.489 fold
same,"fold induction relative to WT MPZ DMSO, BiP",[1]; [19],6.3 fold
same,"fold induction relative to WT MPZ DMSO, CHOP",[1]; [19],10.9106 fold
same,"fold induction relative to WT MPZ DMSO, DR5 total",[1]; [19],3.205 fold
same,"fold induction relative to WT MPZ DMSO, BiP",[1]; [20],6.984 fold
same,"fold induction relative to WT MPZ DMSO, CHOP",[1]; [20],9.299 fold
same,"fold induction relative to WT MPZ DMSO, DR5 total",[1]; [20],3.841 fold
same,"fold induction relative to WT MPZ DMSO, BiP",[1]; [21],6.897 fold
same,"fold induction relative to WT MPZ DMSO, CHOP",[1]; [21],9.4871 fold
same,"fold induction relative to WT MPZ DMSO, DR5 total",[1]; [21],3.4208 fold
same,2^-(deltaCq) BiP,[1]; [22],1.043
same,2^-(deltaCq) CHOP,[1]; [22],0.04115
same,2^-(deltaCq) DR5 total,[1]; [22],0.04765
same,2^-(deltaCq) BiP,[1]; [23],1.156
same,2^-(deltaCq) CHOP,[1]; [23],0.03507
same,2^-(deltaCq) DR5 total,[1]; [23],0.05711
same,2^-(deltaCq) BiP,[1]; [24],1.142
same,2^-(deltaCq) CHOP,[1]; [24],0.03578
same,2^-(deltaCq) DR5 total,[1]; [24],0.05086
same,Cq GAPDH,[2]; mean of 3 replicates,18.752
same,avg. fold induction GAPDH,"[2]; relative to empty traffo, mean of 3 replicates",1.009
same,fold induction GAPDH,"[2]; relative to empty traffo, replicate 1",0.7989
same,fold induction GAPDH,"[2]; relative to empty traffo, replicate 2",1.157
same,fold induction GAPDH,"[2]; relative to empty traffo, replicate 3",1.071
same,2^-(deltaCq) GAPDH,[2]; replicate 1,0.8014
same,Cq GAPDH,[2]; replicate 1,19.0714
same,"Cq(sample) - avg Cq(GAPDH), GAPDH",[2]; replicate 1,0.3194
same,2^-(deltaCq) GAPDH,[2]; replicate 2,1.161
same,Cq GAPDH,[2]; replicate 2,18.5367
same,"Cq(sample) - avg Cq(GAPDH), GAPDH",[2]; replicate 2,-0.2154
same,2^-(deltaCq) GAPDH,[2]; replicate 3,1.075
same,Cq GAPDH,[2]; replicate 3,18.648
same,"Cq(sample) - avg Cq(GAPDH), GAPDH",[2]; replicate 3,-0.104
